Source: patent US11766430B2, “Methods of using a phenoxypropylamine compound to treat pain” (Minerva Neurosciences, Inc., priority 2018, dated 2023)
“And” between values parts separate entries of the source, which are not always exact repeats. Equal values may be shown once.

Tested on: carrageenan-induced mechanical hyperalgesia in rats
Assay: Carrageenan-induced mechanical hyperalgesia, paw pressure test, time course to 240 min (Example 2)
Format: in vivo, male Sprague-Dawley rats
Conditions: for Effect on injured paw withdrawal threshold vs vehicle-treated group (in words): time course 30-240 min
Method: In this model, inflammation is induced by intraplantar injection of carrageenan (2%) into the right hindpaw of the rat. Three hours later, reaction thresholds are measured using the paw pressure test. Pressure is gradually applied to both hind paws (inflamed and control) of the rat, and reaction thresholds are determined as the pressure (g) required to elicit paw withdrawal or vocalization. Morphine (3 mg/kg, s.c.) was used as a positive control.
The experiments in this study used fifty (50) male Sprague-Dawley rats (SPF status, Janvier, France), each weighing 204-260 grams. The rats were housed in a temperature (20-24° C.) and relative humidity (45%-65%) controlled room and acclimated to an artificial day/night cycle of 12 hours light (6.30 a.m. to 6.30 p.m.)/12 hours darkness. Rats had free access to sterilized tap water and were fed ad libitum with pelleted complete diet (reference A04, S.A.F.E.). Rats were housed 4 per cage (cages Type E) and were acclimated for a period of at least 5 days before any testing. Each rat was identified by tail markings. Based on the SPF status of the animal facilities, there is no reason to expect that contaminants were present in the food, water or bedding, at levels capable of interfering with the results of the tests.
Pain Test: Static mechanical hyperalgesia was assessed using the Paw Pressure test or Randall & Selitto test (Randall, L. O. and Selitto, J. J., A method for measurement of analgesic activity on inflamed tissue, Arch Int Pharmacodyn, 1957(111): 409-419). This test requires the application of an increasing pressure on the hind paws between a flat surface and a blunt pointer. This test is usually used with animals with one hind paw inflamed by an injection or injured by ligation, and one normal hind paw, to evaluate drugs for analgesic action. The apparatus exerts a steadily increasing force and reaction threshold is determined as the pressure (g) required to elicit paw withdrawal and/or vocalization. In the experiment, animals were gently handled by the experimenter and static mechanical hyperalgesia was assessed. Each reaction threshold measurement was done for both hind paws.
Five (5) experimental groups of 10 rats each were used. Each group was first injected with of 100 μL of a 2% carrageenan suspension in the plantar aspect of the right hindpaw. Three hours after carrageenan injection, paw withdrawal threshold was measured using the paw pressure test (Baseline). The 5 groups were then administered the following: • Group 1: vehicle (0.5% HPMC), i.p., solution (negative control); • Group 2: MIN-117 (0.01 mg/kg, i.p.) in 0.5% HPMC, suspension; • Group 3: MIN-117 (0.1 mg/kg, i.p.) in 0.5% HPMC, suspension; • Group 4: MIN-117 (1 mg/kg, i.p.) in 0.5% HPMC, suspension; and • Group 5: morphine (3 mg/kg, s.c.) in 0.9% NaCl, solution (positive control).
After administering vehicle, MIN-117, or morphine, the antihyperalgesic effect of the compounds was evaluated using the paw pressure test at 0 min. (T0), 30 min., 60 min., 120 min., and 240 min.
Vehicle and MIN-117 were administered intraperitoneally at 10 mL/kg. Morphine was subcutaneously administered at 5 mL/kg. Dosing and testing were performed in a random order by a blinded experimenter except for the morphine-treated group. Doses were expressed in terms of free active substance. Rats were sacrificed at the end of the experiment by CO2 inhalation pending subsequent removal by a certified company.
Results were assessed as: the paw withdrawal threshold (mean±s.e.m.) in grams of contact pressure for each group, calculated from individual paw withdrawal thresholds; the percentage of variation of the paw withdrawal threshold calculated from the mean value of the vehicle-treated group; and/or the percentage of activity. To determine a statistical effect of the test substance and the reference substance, data were analyzed by a non-parametrical test. The significance level was p<0.05.

[1] = 1 mg/kg i.p., T0 (baseline before dosing)
[2] = 1 mg/kg i.p., T0 (baseline before dosing), hydrochloride
[3] = 1 mg/kg i.p., T0 + 30 min, hydrochloride

Q: Which results are given for Cc1nnc(-c2cc3c(OC[C@@H](O)CN4CCC(c5ccc(Cl)c(Cl)c5)CC4)cccc3o2)o1.Cl [MIN-117, (2S)-1-(4-(3,4-dichlorophenyl)piperidin-1-yl)-3-((2-(5-methyl-1,3,4-oxadiazol-2-yl)benzofuran-4-yl)oxy)propan-2-ol hydrochloride]?
A: Nociceptive threshold, injured paw (mean ± s.e.m.) (0.1 mg/kg i.p., T0 (baseline before dosing), hydrochloride): 178 ± 5.5 g and 178 g; % activity, injured paw (0.1 mg/kg i.p., T0 + 30 min): 3%; % variation vs control paw, injured paw (0.1 mg/kg i.p., T0 + 30 min): −48%; % variation vs pre-drug threshold, injured paw (0.1 mg/kg i.p., T0 + 30 min): 3%; % variation vs vehicle-treated group, injured paw (0.1 mg/kg i.p., T0 + 30 min): 3%; Nociceptive threshold, control paw (mean ± s.e.m.) (0.1 mg/kg i.p., T0 + 30 min): 354 g; Nociceptive threshold, injured paw (mean ± s.e.m.) (0.1 mg/kg i.p., T0 + 30 min, hydrochloride): 184 ± 5.0 g and 184 g; % activity, injured paw (0.1 mg/kg i.p., T0 + 60 min): −5%; % variation vs control paw, injured paw (0.1 mg/kg i.p., T0 + 60 min): −48%; % variation vs pre-drug threshold, injured paw (0.1 mg/kg i.p., T0 + 60 min): 1%; % variation vs vehicle-treated group, injured paw (0.1 mg/kg i.p., T0 + 60 min): −4%; Nociceptive threshold, control paw (mean ± s.e.m.) (0.1 mg/kg i.p., T0 + 60 min): 348 g; Nociceptive threshold, injured paw (mean ± s.e.m.) (0.1 mg/kg i.p., T0 + 60 min, hydrochloride): 180 ± 7.9 g and 180 g; % activity, injured paw (0.1 mg/kg i.p., T0 + 120 min): −5%; % variation vs control paw, injured paw (0.1 mg/kg i.p., T0 + 120 min): −50%; % variation vs pre-drug threshold, injured paw (0.1 mg/kg i.p., T0 + 120 min): 0%; % variation vs vehicle-treated group, injured paw (0.1 mg/kg i.p., T0 + 120 min): −4%; Nociceptive threshold, control paw (mean ± s.e.m.) (0.1 mg/kg i.p., T0 + 120 min): 354 g; Nociceptive threshold, injured paw (mean ± s.e.m.) (0.1 mg/kg i.p., T0 + 120 min, hydrochloride): 178 ± 7.6 g and 178 g; % activity, injured paw (0.1 mg/kg i.p., T0 + 240 min): −4%; % variation vs control paw, injured paw (0.1 mg/kg i.p., T0 + 240 min): −49%; % variation vs pre-drug threshold, injured paw (0.1 mg/kg i.p., T0 + 240 min): 1%; % variation vs vehicle-treated group, injured paw (0.1 mg/kg i.p., T0 + 240 min): −3%; Nociceptive threshold, control paw (mean ± s.e.m.) (0.1 mg/kg i.p., T0 + 240 min): 350 g; Nociceptive threshold, injured paw (mean ± s.e.m.) (0.1 mg/kg i.p., T0 + 240 min, hydrochloride): 180 ± 8.4 g and 180 g; Effect on injured paw withdrawal threshold vs vehicle-treated group (in words) (0.1 mg/kg i.p.): did not induce any significant increase; % activity, injured paw [1]: 3%; % variation vs control paw, injured paw [1]: −50%; % variation vs vehicle-treated group, injured paw [1]: 3%; Nociceptive threshold, control paw (mean ± s.e.m.) [2]: 374.0 ± 12.7 g and 374 g; Nociceptive threshold, injured paw (mean ± s.e.m.) [2]: 188 ± 9.0 g and 188 g; % activity, injured paw (1 mg/kg i.p., T0 + 30 min): 1%; % variation vs control paw, injured paw (1 mg/kg i.p., T0 + 30 min): −49%; % variation vs vehicle-treated group, injured paw (1 mg/kg i.p., T0 + 30 min): 1%; Nociceptive threshold, control paw (mean ± s.e.m.) (1 mg/kg i.p., T0 + 30 min): 356 g; % variation vs pre-drug threshold, injured paw [3]: −4% and 4%; Nociceptive threshold, injured paw (mean ± s.e.m.) [3]: 180 ± 7.3 g and 180 g; % activity, injured paw (1 mg/kg i.p., T0 + 60 min): 14%; % variation vs control paw, injured paw (1 mg/kg i.p., T0 + 60 min): −45%; % variation vs pre-drug threshold, injured paw (1 mg/kg i.p., T0 + 60 min): 13%; % variation vs vehicle-treated group, injured paw (1 mg/kg i.p., T0 + 60 min): 13%; Nociceptive threshold, control paw (mean ± s.e.m.) (1 mg/kg i.p., T0 + 60 min): 380 g; Nociceptive threshold, injured paw (mean ± s.e.m.) (1 mg/kg i.p., T0 + 60 min, hydrochloride): 212 ± 12.4 g and 212 g; % activity, injured paw (1 mg/kg i.p., T0 + 120 min): 29%; % variation vs control paw, injured paw (1 mg/kg i.p., T0 + 120 min): −41%; % variation vs pre-drug threshold, injured paw (1 mg/kg i.p., T0 + 120 min): 23%; Nociceptive threshold, control paw (mean ± s.e.m.) (1 mg/kg i.p., T0 + 120 min): 392 g; Nociceptive threshold, injured paw (mean ± s.e.m.) (1 mg/kg i.p., T0 + 120 min, hydrochloride): 232 ± 7.4 g and 232 g; % activity, injured paw (1 mg/kg i.p., T0 + 240 min): 1%; % variation vs control paw, injured paw (1 mg/kg i.p., T0 + 240 min): −49%; % variation vs pre-drug threshold, injured paw (1 mg/kg i.p., T0 + 240 min): 0%; % variation vs vehicle-treated group, injured paw (1 mg/kg i.p., T0 + 240 min): 1%; Nociceptive threshold, control paw (mean ± s.e.m.) (1 mg/kg i.p., T0 + 240 min): 370 g; Nociceptive threshold, injured paw (mean ± s.e.m.) (1 mg/kg i.p., T0 + 240 min, hydrochloride): 188 ± 6.1 g and 188 g; Effect on injured paw withdrawal threshold vs vehicle-treated group (in words) (1 mg/kg i.p.): slight increase in the nociceptive threshold becoming significant 120 min. after injection
